The source of these data is ChEMBL document CHEMBL5046249, “Synthesis, biological evaluation and cellular localization study of fluorescent derivatives of Jiyuan Oridonin A” (Eur J Med Chem, 2022).

Bounds are passed on as bounds.

Assay type in all cases: functional, cell-based
The test system of one assay is HGC-27. Description: Antiproliferative activity against human HGC-27 cells assessed as inhibition of cell growth measured after 72 hrs by SRB assay. Conditions: HGC-27, 72 h.
In the next assay the test system is PC-3. As to the kind of experiment: Antiproliferative activity against human PC-3 cells assessed as inhibition of cell growth measured after 72 hrs by SRB assay. Conditions: PC-3, 72 h.
A further assay relates to MGC-803. Description: Antiproliferative activity against human MGC-803 cells assessed as inhibition of cell growth measured after 72 hrs by SRB assay. The settings on record: MGC-803, 72 h.
The next assay deals with TE-1. Description: Antiproliferative activity against human TE-1 cells assessed as inhibition of cell growth measured after 72 hrs by SRB assay. The settings on record: TE-1, 72 h.
Another assay deals with SW1990. Description: Antiproliferative activity against human SW1990 cells assessed as inhibition of cell growth measured after 72 hrs by SRB assay. Conditions: SW1990, 72 h.

As to `C=C1C(=O)[C@]23[C@H](O)[C@H]1C[C@H](O)[C@H]2[C@]12CCCC(C)(C)[C@H]1C[C@H]3O[C@H]2OCCCCCCc1cn(CCCCCCN2C(=O)c3cccc4c(N5CCCCC5)ccc(c34)C2=O)nn1`, the IC50 in the assay on HGC-27 worked out at 5880 nM; with PC-3, 3000 nM; with MGC-803, 3650 nM; in the assay on TE-1, 4050 nM; in the assay with SW1990, 4880 nM.
For `C#CCCO[C@@H]1O[C@@H]2C[C@@H]3C(C)(C)CCC[C@]13[C@@H]1[C@@H](O)C[C@H]3C(=C)C(=O)[C@@]21[C@@H]3O`, in that order: 6480 nM, 4250 nM, 6360 nM, 7390 nM and 4230 nM.
The like results for `C#CCCCCO[C@@H]1O[C@@H]2C[C@@H]3C(C)(C)CCC[C@]13[C@@H]1[C@@H](O)C[C@H]3C(=C)C(=O)[C@@]21[C@@H]3O` were, in that order, 3000 nM, 4320 nM, 2550 nM, 5670 nM and 3340 nM.
On to `C=C1C(=O)[C@]23[C@H](O)[C@H]1C[C@H](O)[C@H]2[C@]12CCCC(C)(C)[C@H]1C[C@H]3O[C@H]2OCCCCCCc1cn(CCCCN2C(=O)c3cccc4c(N5CCCCC5)ccc(c34)C2=O)nn1`, for which the IC50 with HGC-27 turned out to be 2290 nM; with PC-3, 6160 nM; in the assay on MGC-803 it was 4590 nM; in the assay on TE-1, 8820 nM; in the assay on SW1990 it was 4520 nM.
The like results for `C=C1C(=O)[C@]23[C@H](O)[C@H]1C[C@H](O)[C@H]2[C@]12CCCC(C)(C)[C@H]1C[C@H]3O[C@H]2OCCCCc1cn(CCOCCOCCN2C(=O)c3cccc4c(N5CCCCC5)ccc(c34)C2=O)nn1` were, in that order, 1750 nM, 1150 nM, 2930 nM, 2260 nM and 2160 nM.
For `C=C1C(=O)[C@]23[C@H](O)[C@H]1C[C@H](O)[C@H]2[C@]12CCCC(C)(C)[C@H]1C[C@H]3O[C@H]2OCCc1cn(CCOCCOCCN2C(=O)c3cccc4c(N5CCCCC5)ccc(c34)C2=O)nn1`, in that order: 3540 nM, 970 nM, 3310 nM, 1830 nM and 2090 nM.
For `C=C1C(=O)[C@]23[C@H](O)[C@H]1C[C@H](O)[C@H]2[C@]12CCCC(C)(C)[C@H]1C[C@H]3O[C@H]2OCCCc1cn(CCCN2C(=O)c3cccc4c(N5CCCCC5)ccc(c34)C2=O)nn1`, in that order: 4110 nM, 1240 nM, 1320 nM, 3540 nM and 1130 nM.
On to `[N-]=[N+]=NCCCN1C(=O)c2cccc3c(N4CCCCC4)ccc(c23)C1=O`, for which the IC50 with HGC-27, in the assay on PC-3, with MGC-803, in the assay with TE-1 and with SW1990 was greater than 32000 nM each time.
On to `C=C1C(=O)[C@]23[C@H](O)[C@H]1C[C@H](O)[C@H]2[C@]12CCCC(C)(C)[C@H]1C[C@H]3O[C@H]2OCCCc1cn(CCOCCOCCOCCN2C(=O)c3cccc4c(N5CCCCC5)ccc(c34)C2=O)nn1`, for which the IC50 with HGC-27 was 3110 nM; with PC-3 it was 810 nM; with MGC-803, 2180 nM; in the assay with TE-1 it was 1440 nM; in the assay on SW1990, 1640 nM.
The like results for `C=C1C(=O)[C@]23[C@H](O)[C@H]1C[C@H](O)[C@H]2[C@]12CCCC(C)(C)[C@H]1C[C@H]3O[C@H]2OCCCc1cn(CCCCN2C(=O)c3cccc4c(N5CCCCC5)ccc(c34)C2=O)nn1` were, in that order, 2240 nM, 1240 nM, 1270 nM, 2080 nM and 870 nM.
`C=C1C(=O)[C@]23[C@H](O)[C@H]1C[C@H](O)[C@H]2[C@]12CCCC(C)(C)[C@H]1C[C@H]3O[C@H]2OCCCc1cn(CCOCCOCCN2C(=O)c3cccc4c(N5CCCCC5)ccc(c34)C2=O)nn1`: the IC50 in the assay on HGC-27 is 1250 nM; in the assay with PC-3 it was 2170 nM; with MGC-803 it was 3450 nM; in the assay with TE-1 it was 3020 nM; with SW1990 it was 1940 nM.
For `C=C1C(=O)[C@]23[C@H](O)[C@H]1C[C@H](O)[C@H]2[C@]12CCCC(C)(C)[C@H]1C[C@H]3O[C@H]2OCCCCCCc1cn(CCOCCOCCN2C(=O)c3cccc4c(N5CCCCC5)ccc(c34)C2=O)nn1`, in that order: 1880 nM, 970 nM, 3010 nM, 1530 nM and 2820 nM.
For `C=C1C(=O)[C@]23[C@H](O)[C@H]1C[C@H](O)[C@H]2[C@]12CCCC(C)(C)[C@H]1C[C@H]3O[C@H]2OCCCCCCc1cn(CCCCCN2C(=O)c3cccc4c(N5CCCCC5)ccc(c34)C2=O)nn1`, in that order: 2280 nM, 3890 nM, 4180 nM, 3450 nM and 4590 nM.
The like results for `C=C1C(=O)[C@]23[C@H](O)[C@H]1C[C@H](O)[C@H]2[C@]12CCCC(C)(C)[C@H]1C[C@H]3O[C@H]2OCCc1cn(CCN2C(=O)c3cccc4c(N5CCCCC5)ccc(c34)C2=O)nn1` were, in that order, 2640 nM, 2500 nM, 960 nM, 3340 nM and 880 nM.
As for `C#CCCCO[C@@H]1O[C@@H]2C[C@@H]3C(C)(C)CCC[C@]13[C@@H]1[C@@H](O)C[C@H]3C(=C)C(=O)[C@@]21[C@@H]3O`, the IC50 in the assay with HGC-27 worked out at 2680 nM; in the assay on PC-3, 5370 nM; in the assay on MGC-803, 2460 nM; with TE-1, 4230 nM; in the assay on SW1990 it was 3220 nM.
The like results for `C=C1C(=O)[C@]23[C@H](O)[C@H]1C[C@H](O)[C@H]2[C@]12CCCC(C)(C)[C@H]1C[C@H]3O[C@H]2OCCCCc1cn(CCCN2C(=O)c3cccc4c(N5CCCCC5)ccc(c34)C2=O)nn1` were, in that order, 6130 nM, 770 nM, 1200 nM, 2640 nM and 3310 nM.
In the case of `C=C1C(=O)[C@]23[C@H](O)[C@H]1C[C@H](O)[C@H]2[C@]12CCCC(C)(C)[C@H]1C[C@H]3O[C@H]2OCCc1cn(CCCCN2C(=O)c3cccc4c(N5CCCCC5)ccc(c34)C2=O)nn1`, the IC50 in the assay with HGC-27 turned out to be 1610 nM; in the assay on PC-3, 740 nM; in the assay on MGC-803, 1510 nM; in the assay on TE-1, 4890 nM; in the assay on SW1990, 1610 nM.
Take `C=C1C(=O)[C@]23[C@H](O)[C@H]1C[C@H](O)[C@H]2[C@]12CCCC(C)(C)[C@H]1C[C@H]3O[C@H]2OCCCCCCc1cn(CCOCCN2C(=O)c3cccc4c(N5CCCCC5)ccc(c34)C2=O)nn1`: the IC50 in the assay on HGC-27 was found to be 1170 nM; in the assay on PC-3, 1490 nM; in the assay with MGC-803 it was 1930 nM; in the assay with TE-1 it was 1530 nM; in the assay with SW1990, 1780 nM.
The like results for `C=C1C(=O)[C@]23[C@H](O)[C@H]1C[C@H](O)[C@H]2[C@]12CCCC(C)(C)[C@H]1C[C@H]3O[C@H]2OCCc1cn(CCCCCCN2C(=O)c3cccc4c(N5CCCCC5)ccc(c34)C2=O)nn1` were, in that order, 3090 nM, 790 nM, 1570 nM, 4450 nM and 1410 nM.
The like results for `C=C1C(=O)[C@]23[C@H](O)[C@H]1C[C@H](O)[C@H]2[C@]12CCCC(C)(C)[C@H]1C[C@H]3O[C@H]2OCCCCc1cn(CCCCN2C(=O)c3cccc4c(N5CCCCC5)ccc(c34)C2=O)nn1` were, in that order, 1820 nM, 910 nM, 1690 nM, 3890 nM and 860 nM.
The like results for `C=C1C(=O)[C@]23[C@H](O)[C@H]1C[C@H](O)[C@H]2[C@]12CCCC(C)(C)[C@H]1C[C@H]3O[C@H]2OCCCCCc1cn(CCN2C(=O)c3cccc4c(N5CCCCC5)ccc(c34)C2=O)nn1` were, in that order, 4410 nM, 2470 nM, 2720 nM, 5360 nM and 4630 nM.
Take `C=C1C(=O)[C@]23[C@H](O)[C@H]1C[C@H](O)[C@H]2[C@]12CCCC(C)(C)[C@H]1C[C@H]3O[C@H]2OCCCc1cn(CCN2C(=O)c3cccc4c(N5CCCCC5)ccc(c34)C2=O)nn1`: the IC50 stood at 2970 nM in the assay on HGC-27; 470 nM with PC-3; 1230 nM with MGC-803; 4800 nM with TE-1; 1360 nM in the assay with SW1990.
The like results for `C#CCCCCCCO[C@@H]1O[C@@H]2C[C@@H]3C(C)(C)CCC[C@]13[C@@H]1[C@@H](O)C[C@H]3C(=C)C(=O)[C@@]21[C@@H]3O` were, in that order, 3010 nM, 2880 nM, 1970 nM, 3180 nM and 3260 nM.
For `[N-]=[N+]=NCCOCCOCCN1C(=O)c2cccc3c(N4CCCCC4)ccc(c23)C1=O`, in that order: greater than 32000 nM, greater than 32000 nM, greater than 32000 nM, greater than 32000 nM and greater than 32000 nM.
